The numbers were not newly measured in patent US20040132806A1, “Pravastatin pharmaceutical formulations and methods of their use” (priority 2002, published 2004), which cites them from elsewhere.

The conditions of data set [1]: intravenous, radiolabeled.
Assay in data set [2]: not given
This is another data set of the same source.

For data set [3] the following is noted: patients treated with pravastatin (Schatke et al, 1992).
For data set [4] the following is noted: such as the stomach.

Like-named read-outs stand apart in the source and are kept apart here.

As to `CC[C@H](C)C(=O)O[C@H]1C[C@H](O)C=C2C=C[C@H](C)[C@H](CC[C@@H](O)C[C@@H](O)CC(=O)O)[C@H]21` [pravastatin, Pravastatin], the “decrease of systemic bioavailability following a bedtime dose (PM) compared to morning (AM) dose” value (PM vs AM dose) is 60%. Also, the average oral absorption (based on urinary recovery of radiolabeled drug) is reported as 34%. Under “oral radiolabeled dose”, the “radiolabeled oral dose excreted in the feces” value is ~70% and the “radiolabeled oral dose excreted in urine” value is “Approximately 20%”. In data set [1], the “share of total body clearance by non-renal routes (biliary excretion and biotransformation)” value is ~53%; the “share of total body clearance via renal excretion” value is given as “approximately 47%”. Also, in data set [2] (Lennernas & Fager, 1997), the hepatic extraction ratio is reported as 0.45. In addition, in data set [2] (Quion & Jones, 1994), the hepatic extraction ratio was 0.66. Further, in data set [2] (in vivo), the “first-pass extraction in the liver (extraction ratio)” value was 0.66. Besides, in data set [3], the myopathy entry is recorded as “Severe myopathy has been observed”. Moreover, the “stability in acidic conditions” value in data set [4] is given as “poor stability”.
